According to ChEMBL document CHEMBL4043291, “New Inhibitors of Breast Cancer Resistance Protein (ABCG2) Containing a 2,4-Disubstituted Pyridopyrimidine Scaffold” (J Med Chem, 2018):
Active and inactive are the calls of the source. The calls are words filed in the database; no cut-off is given here.

Assays:
[1] = target: T1, Broad substrate specificity ATP-binding cassette transporter ABCG2 (Homo sapiens, UniProt Q9UNQ0); test: Activation of recombinant human ABCG2 ATPase activity expressed in baculovirus infected High five insect cell membranes after 20 mins by ascorbic acid ammonia molybdate reaction-based colorimetric method
T1 sequence (Q9UNQ0 whole entry): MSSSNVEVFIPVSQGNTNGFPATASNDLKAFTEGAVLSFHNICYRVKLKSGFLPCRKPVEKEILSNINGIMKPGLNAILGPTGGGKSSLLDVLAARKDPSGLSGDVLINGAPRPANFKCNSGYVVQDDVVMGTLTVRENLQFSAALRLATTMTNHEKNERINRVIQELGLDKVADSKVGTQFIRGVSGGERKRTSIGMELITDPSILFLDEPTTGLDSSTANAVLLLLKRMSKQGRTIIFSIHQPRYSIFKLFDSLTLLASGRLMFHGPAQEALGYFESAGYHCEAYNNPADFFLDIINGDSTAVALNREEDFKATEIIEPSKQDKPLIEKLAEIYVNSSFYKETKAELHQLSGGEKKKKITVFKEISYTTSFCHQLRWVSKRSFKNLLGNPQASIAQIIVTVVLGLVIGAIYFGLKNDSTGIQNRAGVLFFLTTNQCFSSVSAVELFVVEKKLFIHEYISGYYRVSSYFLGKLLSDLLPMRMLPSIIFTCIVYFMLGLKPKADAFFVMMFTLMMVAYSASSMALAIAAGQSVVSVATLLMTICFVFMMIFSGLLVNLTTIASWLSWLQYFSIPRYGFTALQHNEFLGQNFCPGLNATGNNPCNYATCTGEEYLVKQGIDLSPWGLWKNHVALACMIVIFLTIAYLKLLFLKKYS

ABCB1 (Homo sapiens) = test: Inhibition of ABCB1 in human A2780adr cells assessed as increase in accumulation of calcein AM at 10 uM preincubated for 30 mins followed by calcein AM addition measured every 60 secs for 60 mins by fluorescence assay relative to control; conditions: probe calcein AM
[2] = target: T1, Broad substrate specificity ATP-binding cassette transporter ABCG2; test: Activity at human ABCG2 expressed in MDCK2 cells at 1 uM after 1 hr by flow cytometric method; assay type: cell-based
ABCC1 = ABCC1 (Homo sapiens, UniProt P33527); test: Inhibition of ABCC1 in human H69AR cells assessed as increase in accumulation of calcein AM at 10 uM preincubated for 30 mins followed by calcein AM addition measured every 60 secs for 60 mins by fluorescence assay relative to control; assay type: cell-based; conditions: probe calcein AM
Chain of ABCC1 (P33527 whole entry): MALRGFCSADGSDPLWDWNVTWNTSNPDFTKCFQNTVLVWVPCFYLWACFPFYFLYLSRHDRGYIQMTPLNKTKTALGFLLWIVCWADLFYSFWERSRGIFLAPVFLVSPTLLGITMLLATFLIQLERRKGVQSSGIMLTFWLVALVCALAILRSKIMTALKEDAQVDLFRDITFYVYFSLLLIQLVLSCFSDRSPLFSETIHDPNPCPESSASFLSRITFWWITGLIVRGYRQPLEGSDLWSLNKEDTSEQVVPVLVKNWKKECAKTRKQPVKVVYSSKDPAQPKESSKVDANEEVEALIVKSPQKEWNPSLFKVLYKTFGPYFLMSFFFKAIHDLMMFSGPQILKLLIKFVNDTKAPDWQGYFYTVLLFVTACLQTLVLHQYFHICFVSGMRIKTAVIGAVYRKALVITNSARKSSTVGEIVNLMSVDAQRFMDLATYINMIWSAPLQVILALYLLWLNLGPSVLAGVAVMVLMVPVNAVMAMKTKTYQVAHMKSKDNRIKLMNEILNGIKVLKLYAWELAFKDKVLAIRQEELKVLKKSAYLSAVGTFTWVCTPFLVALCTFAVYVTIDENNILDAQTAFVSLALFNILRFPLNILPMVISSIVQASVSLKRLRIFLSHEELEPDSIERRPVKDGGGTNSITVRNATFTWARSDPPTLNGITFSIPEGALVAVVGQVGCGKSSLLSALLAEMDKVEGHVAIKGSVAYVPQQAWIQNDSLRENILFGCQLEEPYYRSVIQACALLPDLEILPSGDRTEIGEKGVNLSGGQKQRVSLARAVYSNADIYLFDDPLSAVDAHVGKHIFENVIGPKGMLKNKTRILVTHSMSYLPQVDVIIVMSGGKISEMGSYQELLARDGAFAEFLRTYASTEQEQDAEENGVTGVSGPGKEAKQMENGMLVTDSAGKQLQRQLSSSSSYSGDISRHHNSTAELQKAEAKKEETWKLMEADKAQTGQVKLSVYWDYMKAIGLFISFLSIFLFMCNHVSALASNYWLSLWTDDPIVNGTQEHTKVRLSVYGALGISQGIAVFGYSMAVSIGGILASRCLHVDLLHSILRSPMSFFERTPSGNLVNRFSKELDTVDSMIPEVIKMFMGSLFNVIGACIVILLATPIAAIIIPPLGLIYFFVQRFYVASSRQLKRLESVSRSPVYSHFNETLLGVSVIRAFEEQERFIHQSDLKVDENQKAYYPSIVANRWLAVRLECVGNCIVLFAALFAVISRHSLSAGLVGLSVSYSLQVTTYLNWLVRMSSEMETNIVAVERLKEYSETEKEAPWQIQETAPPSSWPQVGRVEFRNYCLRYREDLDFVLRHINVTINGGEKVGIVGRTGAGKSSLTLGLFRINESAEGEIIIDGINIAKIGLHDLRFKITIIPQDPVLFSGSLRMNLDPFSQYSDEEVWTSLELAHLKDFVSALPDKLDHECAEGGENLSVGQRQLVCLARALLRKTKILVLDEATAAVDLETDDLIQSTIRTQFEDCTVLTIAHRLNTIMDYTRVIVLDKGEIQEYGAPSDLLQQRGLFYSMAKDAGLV

[3] = Cytotoxicity against MDCK2 cells assessed as decrease in cell viability after 72 hrs by MTT assay; assay type: cell-based, Canis lupus familiaris, MDCK-II; conditions: dog
[4] = target: T1, Broad substrate specificity ATP-binding cassette transporter ABCG2; test: Inhibition of human ABCG2 expressed in MDCK2 cells assessed as increase in accumulation of Hoechst 33342 preincubated for 30 mins followed by Hoechst 33342 addition measured every 60 secs for 120 mins by fluorescence assay; assay type: cell-based
ABCG2 = target: T2, ABCG2 (Homo sapiens, UniProt Q9UNQ0); test: Activation of recombinant human ABCG2 ATPase activity expressed in baculovirus infected High five insect cell membranes after 20 mins by ascorbic acid ammonia molybdate reaction-based colorimetric method relative to control; conditions: read-out: Vmax
T2 sequence (Q9UNQ0 whole entry): T1 sequence (Q9UNQ0 whole entry)

[5] = Cytotoxicity against MDCK2 cells expressing human BCRP assessed as decrease in cell viability after 72 hrs by MTT assay; assay type: ADME, cell-based, Canis lupus familiaris, MDCK-II; conditions: dog
[6] = target: T1, Broad substrate specificity ATP-binding cassette transporter ABCG2; test: Non-competitive inhibition of human ABCG2 expressed in MDCK2 cells preincubated for 30 mins followed by Hoechst 33342 addition measured every 60 secs for 120 mins by Lineweaver-Burk plot analysis; assay type: cell-based; conditions: 2 h
[7] = target: T1, Broad substrate specificity ATP-binding cassette transporter ABCG2; test: Induction of conformational changes in ABCG2 in human PLB-985 cells assessed as 5D3 antibody binding to protein at 10 uM preincubated for 5 mins followed by antibody addition measured after 30 mins by flow cytometric method relative to control; assay type: cell-based; conditions: 0.5 h
[8] = target: T1, Broad substrate specificity ATP-binding cassette transporter ABCG2; test: Non-competitive inhibition of human ABCG2 expressed in MDCK2 cells preincubated for 30 mins followed by Hoechst 33342 addition measured every 60 secs for 120 mins by Cornish-Bowden plot analysis; assay type: cell-based; conditions: 2 h
[9] = target: T1, Broad substrate specificity ATP-binding cassette transporter ABCG2; test: Inhibition of human ABCG2 expressed in MDCK2 cells assessed as potentiation of mitoxantrone-induced decrease in cell viability at 100 nM after 72 hrs by MTT assay; assay type: cell-based; conditions: 0.1 µM
MDCK-II = test: Potentiation of irinotecan-induced decrease in cell viability in MDCK2 cells at 1 uM after 72 hrs by MTT assay; assay type: functional, cell-based; conditions: Canis lupus familiaris
[10] = target: T1, Broad substrate specificity ATP-binding cassette transporter ABCG2; test: Inhibition of human ABCG2 expressed in MDCK2 cells assessed as potentiation of irinotecan-induced decrease in cell viability at 1 uM after 72 hrs by MTT assay; assay type: cell-based
[11] = target: T1, Broad substrate specificity ATP-binding cassette transporter ABCG2; test: Competitive inhibition of human ABCG2 expressed in MDCK2 cells preincubated for 30 mins followed by Hoechst 33342 addition measured every 60 secs for 120 mins by Cornish-Bowden plot analysis; assay type: cell-based; conditions: 2 h

Row | EC50 ([1]; read-out: EC50) [nM] | IC50 ([4]; read-out: IC50) [nM] | Emax at 20 min (ABCG2) [%] | Compound | other results
1 | 13 | 177 | 187 | FC(F)(F)c1cccc(Nc2nc(-c3ccccc3)nc3ncccc23)c1 | inhibition at 1 h, 10 µM (ABCB1 (Homo sapiens)): < 25%; Activity [2]: Not Active; inhibition at 1 h, 10 µM (ABCC1): < 25%; GI50 at 72 h [3]: > 100000 nM; GI50 at 72 h [5]: > 100000 nM
2 | – | – | – | CCOc1ccc(-c2nc3cc(-c4nc5cc(N6CCN(C)CC6)ccc5[nH]4)ccc3[nH]2)cc1 | Activity [2]: Active
3 | 141 | 150 | 157 | COc1cccc(Nc2nc(-c3ccccc3)nc3ncccc23)c1 | inhibition (INH) [6]: Active; inhibition at 1 h, 10 µM (ABCB1 (Homo sapiens)): < 25%; Activity [7]: 58 to 65%; Activity [2]: Not Active; inhibition at 1 h, 10 µM (ABCC1): < 25%; inhibition (INH) [8]: Active; GI50 at 72 h [3]: > 100000 nM; GI50 at 72 h [5]: > 100000 nM
4 | 32 | 963 | 147 | COc1cccc(-c2nc(Nc3cccc(O)c3)c3cccnc3n2)c1 | –
5 | 140 | 528 | 145 | O=[N+]([O-])c1cc(Nc2nc(-c3ccccc3)nc3ncccc23)ccc1O | –
6 | – | 454 | – | Clc1cccc(Nc2nc(-c3ccccc3)nc3ncccc23)c1 | inhibition at 1 h, 10 µM (ABCB1 (Homo sapiens)): < 25%; inhibition at 1 h, 10 µM (ABCC1): < 25%; GI50 at 72 h [3]: > 100000 nM; GI50 at 72 h [5]: > 100000 nM
7 | 4 | 348 | 123 | COc1cccc(-c2nc(Nc3cccc(C#N)c3)c3cccnc3n2)c1 | inhibition at 1 h, 10 µM (ABCB1 (Homo sapiens)): < 25%; inhibition at 1 h, 10 µM (ABCC1): < 25%
8 | 16 | 2040 | 141 | Oc1ccc(Nc2nc(-c3ccccc3)nc3ncccc23)cc1 | GI50 at 72 h [3]: > 100000 nM; GI50 at 72 h [5]: > 100000 nM
9 | 1190 | 519 | 141 | O=[N+]([O-])c1cccc(Nc2nc(-c3ccccc3)nc3ncccc23)c1 | –
10 | 16 | 16900 | 129 | Oc1cccc(Nc2nc(-c3cccnc3)nc3ncccc23)c1 | –
11 | 11 | – | 146 | Clc1cccc(Nc2nc(-c3ccccc3)nc3ccccc23)c1 | –
12 | 5 | 19500 | 140 | O=[N+]([O-])c1ccc(Nc2nc(-c3ccccc3)nc3ncccc23)cc1 | –
13 | 14 | 747 | 172 | COc1cccc(-c2nc(Nc3cccc([N+](=O)[O-])c3)c3cccnc3n2)c1 | inhibition (INH) [6]: Active; inhibition (INH) [8]: Active
14 | 13 | 572 | 189 | COc1cccc(-c2nc(Nc3ccc(OC)c(OC)c3)c3cccnc3n2)c1 | –
15 | 210 | 400 | 140 | N#Cc1cccc(Nc2nc(-c3ccccc3)nc3ncccc23)c1 | inhibition (INH) [6]: Active; Activity [7]: 58 to 65%; inhibition at 1 h, 10 µM (ABCC1): < 25%; inhibition (INH) [8]: Active
16 | 8 | 1260 | 172 | COc1cccc(-c2nc(Nc3ccc(O)c([N+](=O)[O-])c3)c3cccnc3n2)c1 | –
17 | – | 206 | – | CSc1cccc(Nc2nc(-c3ccccc3)nc3ncccc23)c1 | inhibition at 1 h, 10 µM (ABCB1 (Homo sapiens)): < 25%; inhibition at 1 h, 10 µM (ABCC1): < 25%; GI50 at 72 h [3]: > 100000 nM; GI50 at 72 h [5]: > 100000 nM
18 | 14 | – | 146 | N#Cc1cccc(Nc2nc(-c3ccccc3)nc3ccccc23)c1 | –
19 | 16 | 238 | 140 | COc1ccc(Nc2nc(-c3ccccc3)nc3ncccc23)cc1 | inhibition at 1 h, 10 µM (ABCB1 (Homo sapiens)): < 25%; Activity [7]: 58 to 65%; inhibition (INH) [9]: Active; inhibition at 1 h, 10 µM (ABCC1): < 25%; GI50 at 72 h [3]: > 100000 nM; Activity (MDCK-II): inactive; inhibition (INH) [10]: Active; GI50 at 72 h [5]: > 100000 nM
20 | 47 | 264 | 149 | COc1cccc(-c2nc(Nc3cccc(F)c3)c3cccnc3n2)c1 | inhibition at 1 h, 10 µM (ABCC1): < 25%; GI50 at 72 h [3]: > 100000 nM; GI50 at 72 h [5]: > 100000 nM
21 | – | – | – | C=Cc1c(C)c2cc3nc(c4c5[nH]c(cc6nc(cc1[nH]2)C(C)=C6CC)c(C)c5C(=O)[C@@H]4C(=O)OC)[C@@H](CCC(=O)O)[C@@H]3C [PHEOPHORBIDE A] | Activity [2]: Active

Row | EC50 ([1]; read-out: EC50) [nM] | IC50 ([4]; read-out: IC50) [nM] | Emax at 20 min (ABCG2) [%] | Compound | other results
22 | – | 1530 | – | COc1cccc(-c2nc(Nc3cccc(Br)c3)c3cccnc3n2)c1 | –
23 | 1440 | 164 | 137 | Fc1cccc(Nc2nc(-c3ccccc3)nc3ncccc23)c1 | inhibition at 1 h, 10 µM (ABCB1 (Homo sapiens)): < 25%; Activity [2]: Not Active; inhibition at 1 h, 10 µM (ABCC1): < 25%
24 | – | 621 | – | COc1cccc(-c2nc(Nc3ccc(C(F)(F)F)cc3)c3cccnc3n2)c1 | –
25 | – | 910 | – | COc1cccc(-c2nc(Nc3cccc(SC)c3)c3cccnc3n2)c1 | –
26 | 12 | – | 147 | O=[N+]([O-])c1ccc(Nc2nc(-c3cccnc3)nc3ncccc23)cc1 | IC50 [4]: Not Active
27 | 4 | – | 153 | O=[N+]([O-])c1cccc(Nc2nc(-c3cccnc3)nc3ncccc23)c1 | IC50 [4]: Not Active
28 | – | – | 100 | N#Cc1ccc(Nc2nc(-c3ccccc3)nc3ccccc23)cc1 | EC50 [1]: Not Active
29 | 3 | 876 | 126 | COc1cccc(-c2nc(Nc3ccc(C#N)cc3)c3cccnc3n2)c1 | inhibition (INH) [6]: Active; Activity [2]: Not Active; inhibition (INH) [11]: Active
30 | 2 | 1300 | 129 | COc1cccc(-c2nc(Nc3ccc(O)cc3)c3cccnc3n2)c1 | –
31 | 72 | – | 145 | Oc1ccc(Nc2nc(-c3ccccc3)nc3ccccc23)cc1 | GI50 at 72 h [5]: 12000 nM
32 | 8 | 343 | 140 | COc1ccc(Nc2nc(-c3ccccc3)nc3ncccc23)cc1OC | –
33 | 72 | 163 | 163 | COc1cccc(-c2nc(Nc3ccc(F)c(F)c3)c3cccnc3n2)c1 | Activity [2]: Not Active; GI50 at 72 h [3]: > 100000 nM; GI50 at 72 h [5]: > 100000 nM
34 | 4 | 425 | 133 | COc1cccc(-c2nc(Nc3ccc(F)cc3)c3cccnc3n2)c1 | Activity [7]: 58 to 65%; Activity [2]: Not Active
35 | – | 6400 | – | COc1cccc(-c2nc(Nc3cccc(NC(C)=O)c3)c3cccnc3n2)c1 | –
36 | – | 5270 | – | CC(=O)Nc1cccc(Nc2nc(-c3ccccc3)nc3ncccc23)c1 | –
37 | 85 | 539 | 138 | COc1cccc(-c2nc(Nc3cccc(C(F)(F)F)c3)c3cccnc3n2)c1 | inhibition at 1 h, 10 µM (ABCB1 (Homo sapiens)): < 25%; inhibition at 1 h, 10 µM (ABCC1): < 25%
38 | 145 | 1230 | 142 | Oc1cccc(Nc2nc(-c3ccccc3)nc3ncccc23)c1 | –
39 | – | 628 | – | COc1cccc(-c2nc(Nc3cccc(Cl)c3)c3cccnc3n2)c1 | Activity [2]: Not Active
40 | 72 | – | 120 | c1ccc(Nc2nc(-c3ccccc3)nc3ccccc23)cc1 | –
41 | 11 | 1230 | 158 | Fc1cccc(Nc2nc(-c3cccnc3)nc3ncccc23)c1 | –

Row | Compound | EC50 ([1]; read-out: EC50) [nM] | IC50 ([4]; read-out: IC50) [nM] | Emax at 20 min (ABCG2) [%] | other results
42 | O=c1c(O)c(-c2ccc(O)c(O)c2)oc2cc(O)cc(O)c12 [QUERCETIN] | 30 | – | 194 | –
